CP(=O)(c1ccccc1)c1ccccc1
Settings	solubility (mole fraction)
in benzene, 288.52 K	0.0439
in benzene, 293.56 K	0.0573
in benzene, 298.13 K	0.0698
in benzene, 303.21 K	0.0875
in benzene, 308.12 K	0.102
in benzene, 312.55 K	0.123
in benzene, 318.04 K	0.156
in benzene, 323.17 K	0.183
in ethyl acetate, 293.25 K	0.0415
in ethyl acetate, 298.46 K	0.0497
in ethyl acetate, 302.88 K	0.0618
in ethyl acetate, 307.97 K	0.0744
in ethyl acetate, 313.22 K	0.0885
in ethyl acetate, 317.25 K	0.104
in ethyl acetate, 322.14 K	0.128
in ethyl acetate, 326.93 K	0.15
in ethylbenzene, 293.35 K	0.0183
in ethylbenzene, 298.04 K	0.0224
in ethylbenzene, 303.12 K	0.0304
in ethylbenzene, 308.33 K	0.0393
in ethylbenzene, 312.8 K	0.0464
in ethylbenzene, 317.51 K	0.061
in ethylbenzene, 321.25 K	0.0719
in ethylbenzene, 326.39 K	0.0876
in m-xylene, 293.75 K	0.0129
in m-xylene, 298.16 K	0.0167
in m-xylene, 303.32 K	0.0216
in m-xylene, 307.41 K	0.0258
in m-xylene, 313 K	0.0332
in m-xylene, 317.53 K	0.0398
in m-xylene, 320.55 K	0.0453
in m-xylene, 326.39 K	0.0614
in o-xylene, 293.35 K	0.0281
in o-xylene, 298.08 K	0.0343
in o-xylene, 303.11 K	0.0406
in o-xylene, 308.23 K	0.0454
in o-xylene, 313.09 K	0.0525
in o-xylene, 317.05 K	0.0603
in o-xylene, 321.94 K	0.071
in o-xylene, 328.07 K	0.0821
in p-xylene, 293.65 K	0.0131
in p-xylene, 298.19 K	0.0175
in p-xylene, 303.31 K	0.0219
in p-xylene, 308.42 K	0.03
in p-xylene, 313.11 K	0.036
in p-xylene, 317.38 K	0.0442
in p-xylene, 320.55 K	0.0539
in p-xylene, 326.44 K	0.0679
in toluene, 293.35 K	0.0227
in toluene, 298.16 K	0.0287
in toluene, 303.08 K	0.0386
in toluene, 307.11 K	0.0498
in toluene, 312.12 K	0.065
in toluene, 316.4 K	0.0798
in toluene, 320.95 K	0.0979
in toluene, 326.54 K	0.135

From BigSolDB 2.1
